From US10646488B2 (Araxes Pharma LLC, priority 2016, dated 2020)

Target: T1, KRAS G12C 1-169, his-tagged protein, GDP-loaded (Homo sapiens, UniProt P01116, G12C)
T1 construct: KRAS G12C 1-169, his-tagged protein, GDP-loaded
Experiment: Covalent binding (% modification) to KRAS G12C by mass spectrometry; note: test concentration or dose not given here

[1] = covalent binding to KRAS G12C after a three minute incubation period
[2] = covalent binding to KRAS G12C after a ten minute incubation period

Compound	Binding % [1]	Binding % [2]
C=CC(=O)N1C[C@H](C)N(c2nc(N3CC(N(C)C(C)C)C3)nc3c(F)c(-c4c(O)cccc4F)c(Cl)cc23)C[C@H]1C [Compound 99, 1-((2R,5S)-4-(6-chloro-8-fluoro-7-(2-fluoro-6-hydroxyphenyl)-2-(3-(isopropyl (methyl)amino)azetidin-1-yl)quinazolin-4-yl)-2,5-dimethyl-piperazin-1-yl) prop-2-en-1-one]	++ (++ indicates binding activity from 50 to 90%)	
C=CC(=O)N1C[C@H](C)N(c2nc(N3CC(N(C)C)C3)nc3c(F)c(-c4ccccc4F)c(Cl)cc23)C[C@H]1C [Compound 132, 1-((2R,5S)-4-(6-chloro-2-(3-(dimethylamino)azetidin-1-yl)-8-fluoro-7-(2-fluorophenyl)quinazolin-4-yl)-2,5-dimethyl-piperazin-1-yl) prop-2-en-1-one]	++ (++ indicates binding activity from 50 to 90%)	
C=CC(=O)N1C[C@H](C)N(c2nc(N3CC4(CCN(C5CC5)C4)C3)nc3c(F)c(-c4c(C)ccc5[nH]ncc45)c(Cl)cc23)C[C@H]1C [Compound 140, 1-((2R,5S)-4-(6-chloro-2-(6-cyclopropyl-2,6-diazaspiro[3.4]octan-2-yl)-8-fluoro-7-(5-methyl-1H-indazol-4-yl)quinazolin-4-yl)-2,5-dimethyl-piperazin-1-yl) prop-2-en-1-one]	++ (++ indicates binding activity from 50 to 90%)	
C=CC(=O)N1C[C@H](C)N(c2nc(N3CC(N(C)C)C3)nc3c(F)c(-c4c(F)cccc4OC(C)=O)c(Cl)cc23)C[C@H]1C [Compound 214, 2-(4-((2S,5R)-4-acryloyl-2,5-dimethylpiperazin-1-yl)-6-chloro-2-(3-(dimethylamino)azetidin-1-yl)-8-fluoroquinazolin-7-yl)-3-fluoro-phenyl acetate]	+ (+ indicates binding activity greater than 0% and up to 50%)	
C=CC(=O)N1C[C@H](C)N(c2nc(N3CC4(CCCN(C)C4)C3)nc3c(F)c(-c4c(O)cccc4F)c(Cl)cc23)C[C@H]1C [Compound 183, 1-((2R,5S)-4-(6-chloro-8-fluoro-7-(2-fluoro-6-hydroxyphenyl)-2-(6-methyl-2,6-diazaspiro[3.5]nonan-2-yl)quinazolin-4-yl)-2,5-dimethyl-piperazin-1-yl) prop-2-en-1-one]	++ (++ indicates binding activity from 50 to 90%)	
C=CC(=O)N1C[C@H](C)N(c2nc(OCCCN3CCC(F)(F)C3)nc3c(F)c(-c4cc(O)cc5ccccc45)c(Cl)cc23)C[C@H]1C [Compound 221, 1-((2R,5S)-4-(6-chloro-2-(3-(3,3-difluoropyrrolidin-1-yl)propoxy)-8-fluoro-7-(3-hydroxynaphthalen-1-yl)quinazolin-4-yl)-2,5-dimethyl-piperazin-1-yl) prop-2-en-1-one]	+ (+ indicates binding activity greater than 0% and up to 50%)	
C=CC(=O)N1CCN(c2nc(N3CC(C)(N(C)C)C3)nc3c(F)c(-c4c(O)cccc4F)c(Cl)cc23)C[C@H]1C [Compound 163, 1-((2R)-4-(6-chloro-2-(3-(dimethylamino)-3-methylazetidin-1-yl)-8-fluoro-7-(2-fluoro-6-hydroxyphenyl)quinazolin-4-yl)-2-methyl-piperazin-1-yl) prop-2-en-1-one]	++ (++ indicates binding activity from 50 to 90%)	
C=CC(=O)N1C[C@H](C)N(c2nc(Oc3cnn(C)c3)nc3c(F)c(-c4c(O)cccc4F)c(Cl)cc23)C[C@H]1C [Compound 225, 1-((2R,5S)-4-(6-chloro-8-fluoro-7-(2-fluoro-6-hydroxyphenyl)-2-(1-methyl-1H-pyrazol-4-yloxy)quinazolin-4-yl)-2,5-dimethyl-piperazin-1-yl) prop-2-en-1-one]	++ (++ indicates binding activity from 50 to 90%)	
C=CC(=O)N1C[C@H](C)N(c2nc(OCCN3CCC(F)(F)C3)nc3c(F)c(-c4c(O)cccc4F)c(Cl)cc23)C[C@H]1C [Compound 203, 1-((2R,5S)-4-(6-chloro-2-(2-(3,3-difluoropyrrolidin-1-yl)ethoxy)-8-fluoro-7-(2-fluoro-6-hydroxyphenyl)quinazolin-4-yl)-2,5-dimethyl-piperazin-1-yl) prop-2-en-1-one]	+++ (+++ indicates binding activity greater than 90%)	
C=CC(=O)N1[C@H](C)CN(c2nc(N)nc3c(F)c(-c4c(C)ccc5cn[nH]c45)c(Cl)cc23)C[C@@H]1C [Compound 6, 1-((2S,6R)-4-(2-amino-6-chloro-8-fluoro-7-(6-methyl-1H-indazol-7-yl)quinazolin-4-yl)-2,6-dimethyl-piperazin-1-yl) prop-2-en-1-one]		++ (++ indicates binding activity from 50 to 90%)
C=CC(=O)N1C[C@H](C)N(c2nc(OCCCN3CCC(F)(F)C3)nc3c(F)c(-c4c(O)cccc4F)c(Cl)cc23)C[C@H]1C [Compound 230, 1-((2R,5S)-4-(6-chloro-2-(3-(3,3-difluoropyrrolidin-1-yl)propoxy)-8-fluoro-7-(2-fluoro-6-hydroxyphenyl)quinazolin-4-yl)-2,5-dimethyl-piperazin-1-yl) prop-2-en-1-one]	++ (++ indicates binding activity from 50 to 90%)	
[2H]C([2H])([2H])N(C1CN(c2nc(N3C[C@@H](C)N(C(=O)C=C)C[C@@H]3C)c3cc(Cl)c(-c4cc(O)cc5ccccc45)c(F)c3n2)C1)C([2H])([2H])[2H] (atropisomer, axis not shown) [Compound 228]	+++ (+++ indicates binding activity greater than 90%)	
C=CC(=O)N1C[C@H](C)N(c2nc(N3CC(N(C)C4CCC4)C3)nc3c(F)c(-c4c(C)ccc5[nH]ncc45)c(Cl)cc23)C[C@H]1C [Compound 143, 1-((2R,5S)-4-(6-chloro-2-(3-(cyclobutyl (methyl)amino)azetidin-1-yl)-8-fluoro-7-(5-methyl-1H-indazol-4-yl)quinazolin-4-yl)-2,5-dimethyl-piperazin-1-yl) prop-2-en-1-one]	+++ (+++ indicates binding activity greater than 90%)	
C=CC(=O)N1CCN(c2nc(N3CC(N(CC)CC)C3)nc3c(F)c(-c4c(C)ccc5[nH]ncc45)c(Cl)cc23)[C@@H](C)C1 [Compound 167, 1-((3S)-4-(6-chloro-2-(3-(diethylamino)azetidin-1-yl)-8-fluoro-7-(5-methyl-1H-indazol-4-yl)quinazolin-4-yl)-3-methyl-piperazin-1-yl) prop-2-en-1-one]	+++ (+++ indicates binding activity greater than 90%)	
C=CC(=O)N1C[C@H](C)N(c2nc(N3CC4(CCN(C)C4)C3)nc3c(F)c(-c4c(O)cccc4F)c(Cl)cc23)C[C@H]1C [Compound 190, 1-((2R,5S)-4-(6-chloro-8-fluoro-7-(2-fluoro-6-hydroxyphenyl)-2-(6-methyl-2,6-diazaspiro[3.4]octan-2-yl)quinazolin-4-yl)-2,5-dimethyl-piperazin-1-yl) prop-2-en-1-one]	++ (++ indicates binding activity from 50 to 90%)	
C=CC(=O)N1CCN(c2nc(N3CC(N(CC)CC)C3)nc3c(F)c(-c4c(C)ccc5[nH]ncc45)c(Cl)cc23)C[C@H]1C [Compound 166, 1-((2R)-4-(6-chloro-2-(3-(diethylamino)azetidin-1-yl)-8-fluoro-7-(5-methyl-1H-indazol-4-yl)quinazolin-4-yl)-2-methyl-piperazin-1-yl) prop-2-en-1-one]	++ (++ indicates binding activity from 50 to 90%)	
C=CC(=O)N1C[C@H](C)N(c2nc(N3CC(N(C)C)C3)nc3c(F)c(-c4cc(O)cc5ccccc45)c(Cl)cc23)C[C@H]1C (atropisomer, axis not shown) [Compound 220, 1-((2R,5S)-4-(6-chloro-2-(3-(dimethylamino)azetidin-1-yl)-8-fluoro-7-((R)-3-hydroxynaphthalen-1-yl)quinazolin-4-yl)-2,5-dimethyl-piperazin-1-yl) prop-2-en-1-one]	+ (+ indicates binding activity greater than 0% and up to 50%)	
C=CC(=O)N1C[C@H](C)N(c2nc(Oc3cnn(C)c3)nc3c(F)c(-c4cc(O)cc5ccccc45)c(Cl)cc23)C[C@H]1C [Compound 216, 1-((2R,5S)-4-(6-chloro-8-fluoro-7-(3-hydroxy-naphthalen-1-yl)-2-(1-methyl-1H-pyrazol-4-yloxy)quinazolin-4-yl)-2,5-dimethyl-piperazin-1-yl) prop-2-en-1-one]	++ (++ indicates binding activity from 50 to 90%)	
C=CC(=O)N1C[C@H](C)N(c2nc(OCCCN(C)C)nc3c(F)c(-c4cc(O)cc5ccccc45)c(C(F)(F)F)cc23)C[C@H]1C [Compound 210, 1-((2R,5S)-4-(2-(3-(dimethylamino)propoxy)-8-fluoro-7-(3-hydroxy-naphthalen-1-yl)-6-(trifluoromethyl)quinazolin-4-yl)-2,5-dimethyl-piperazin-1-yl) prop-2-en-1-one]	+++ (+++ indicates binding activity greater than 90%)	
C=CC(=O)N1C[C@@H](C)N(c2nc(OCCN3CC(F)(F)C3)nc3c(F)c(-c4c(O)cccc4F)c(Cl)cc23)[C@@H](C)C1 [Compound 22, 1-((3S,5R)-4-(6-chloro-2-(2-(3,3-difluoroazetidin-1-yl)ethoxy)-8-fluoro-7-(2-fluoro-6-hydroxyphenyl)quinazolin-4-yl)-3,5-dimethyl-piperazin-1-yl) prop-2-en-1-one]		++ (++ indicates binding activity from 50 to 90%)
C=CC(=O)N1C[C@H](C)N(c2nc(N3CC4(CCO4)C3)nc3c(F)c(-c4c(C)ccc5[nH]ncc45)c(Cl)cc23)C[C@H]1C [Compound 193, 1-((2R,5S)-4-(6-chloro-8-fluoro-7-(5-methyl-1H-indazol-4-yl)-2-(1-oxa-6-azaspiro[3.3]heptan-6-yl)quinazolin-4-yl)-2,5-dimethyl-piperazin-1-yl) prop-2-en-1-one]	++ (++ indicates binding activity from 50 to 90%)	
C=CC(=O)N1CCN(c2nc(N3CC(N(C)C)C3)nc3c(F)c(-c4c(O)cccc4F)c(Cl)cc23)[C@@H](C)C1 [Compound 8, 1-((3 S)-4-(6-Chloro-2-(3-(Dimethylamino)Azetidin-1-Yl)-8-Fluoro-7-(2-Fluoro-6-Hydroxyphenyl)Quinazolin-4-Yl)-3-Methylpiperazin-1-Yl)Prop-2-En-1-One]		+++ (+++ indicates binding activity greater than 90%)
